pKi: −log10 of the molar value.
Biological target: Neuronal acetylcholine receptor subunit alpha-7 (Rattus norvegicus, UniProt Q05941)
Assay: Displacement of [125I]iodo-MLA from alpha-7 nAChR in rat cerebral cortex
Format: tissue-based

Sequence of Neuronal acetylcholine receptor subunit alpha-7 (Q05941 whole entry): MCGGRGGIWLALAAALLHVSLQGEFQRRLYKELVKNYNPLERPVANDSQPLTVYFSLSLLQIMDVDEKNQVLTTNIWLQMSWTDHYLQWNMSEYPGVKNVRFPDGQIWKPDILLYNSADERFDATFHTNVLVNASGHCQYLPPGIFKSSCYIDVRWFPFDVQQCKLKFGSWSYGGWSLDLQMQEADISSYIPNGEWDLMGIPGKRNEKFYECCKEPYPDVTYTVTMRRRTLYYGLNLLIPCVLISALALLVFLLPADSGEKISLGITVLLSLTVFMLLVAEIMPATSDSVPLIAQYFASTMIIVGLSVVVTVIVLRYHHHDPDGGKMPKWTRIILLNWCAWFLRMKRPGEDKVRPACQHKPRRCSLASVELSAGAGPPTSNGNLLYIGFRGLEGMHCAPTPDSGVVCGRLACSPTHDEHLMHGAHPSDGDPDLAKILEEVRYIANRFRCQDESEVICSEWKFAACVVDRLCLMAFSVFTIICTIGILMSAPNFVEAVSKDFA

`CNC/C=C\c1cccnc1` and `CNC/C=C/c1cccnc1` cannot be ordered by pKi: less than 5.00 for the first, less than 5.00 for the second.

`CN(C)CCOc1ccccc1` and `CN(C)CCOc1cccnc1` cannot be ordered by pKi: less than 5.00 for the first, less than 5.00 for the second.

`CCN(C)CCOc1cccnc1` and `CNCCOc1cccnc1` cannot be ordered by pKi: less than 5.00 for the first, less than 5.00 for the second.

First: CN(C)CCOc1ccc(CCc2ccccc2)nc1
Second: C[N+](C)(C)CCOc1ccc(CCc2ccccc2)nc1
The pKi of the first is lower: less than 5.00 for the first, 5.36 for the second. The second binds more tightly here.

Going from `C[N+](C)(C)CCOc1ccc(/C=C/c2ccccc2)cc1` to `CN(C)CCOc1ccc(/C=C/c2ccccc2)cc1`, the pKi falls from 5.66 to less than 5.00.

First: C[N+](C)(C)CCOc1ccccc1
Second: C[N+](C)(C)CCOc1cccnc1
The pKi of the first is 0.59 log units lower: 5.96 for the first, 6.55 for the second. The second binds more tightly here.

`CNCCCc1cccnc1` and `C[N+](C)(C)CCCOc1cccnc1` cannot be ordered by pKi: less than 5.00 for the first, less than 5.00 for the second.

Going from `C[N+](C)(C)CCOc1ccc(/C=C/c2ccccc2)nc1` to `CN(C)CCOc1ccc(/C=C/c2ccccc2)nc1`, the pKi falls from 5.90 to less than 5.00. The first binds more tightly here.

`CN1CCCC1c1ccc(CCc2ccccc2)nc1` (racemic) and `CN(C)CCOc1ccc(CCc2ccccc2)cc1` cannot be ordered by pKi: less than 5.00 for the first, less than 5.00 for the second.

For `C[N+](C)(C)CCOc1ccc(CCc2ccccc2)cc1`, the pKi was 5.12.

Tested on: not listed separately
Assay: Selectivity for alpha-7 over alpha4beta2

In the case of `C[N+](C)(C)CCOc1cccnc1`, the Selectivity ratio was 560.
